For orientation: EC50 means the midpoint of the concentration-response curve.

The source of these data is patent US11472778B2, “Hepatitis C virus NS3/4A protease inhibitors” (priority 2017, dated 2022).

Assay [1] deals with T1, GT1a D168A NS3/4A protease (UniProt P27958, C1185S/D1194A, species not given).
T1 construct: Ki (nM) GT1a D168A NS3/4A Protease
Format: biochemical, Hepatitis C virus. The settings on record: read-out: Ki (nM) GT1a D168A NS3/4A Protease. As for the experimental part:
(§1) For each assay, 2 nM of NS3/4A protease (GT1, D168A and GT3) was pre-incubated at room temperature for 1 h with increasing concentration of inhibitors in assay buffer [50 mM Tris, 5% glycerol, 10 mM DTT, 0.6 mM LDAO, and 4% dimethyl sulfoxide]. Inhibition assays were performed in nonbinding surface 96-well black half-area plates (Corning) in a reaction volume of 60 μt. […] Three independent data sets were collected for each inhibitor with each protease construct.
(§2) For each assay, 2 nM of NS3/4A protease (GT1a and D168A) was pre-incubated at room temperature for 1 h with increasing concentration of inhibitors in assay buffer (50 mM Tris, 5% glycerol, 10 mM DTT, 0.6 mM LDAO, and 4% dimethyl sulfoxide, pH 7.5). Inhibition assays were performed in non-binding surface 96-well black half-area plates (Corning) in a reaction volume of 60 μL. […] Three independent data sets were collected for each inhibitor with each protease construct.
(§3) For each assay, 2 nM of NS3/4A protease (GT1a, R155K and D168A) was pre-incubated at room temperature for 1 h with increasing concentration of inhibitors in assay buffer (50 mM Tris, 5% glycerol, 10 mM DTT, 0.6 mM LDAO, and 4% dimethyl sulfoxide, pH 7.5). Inhibition assays were performed in non-binding surface 96-well black half-area plates (Corning) in a reaction volume of 60 μL. […] Three independent data sets were collected for each inhibitor with each protease construct. […] Gibbs free energy of binding was calculated using the following equation: ΔG=RTlnKi

Assay [2] concerns the target GT1a D168A NS3/4A protease. Type of assay: biochemical, Hepatitis C virus. The settings on record: Table 3; Ki D168A relative to GT1a WT. As for the experimental part:
as §1, §2, §3

Assay [3] deals with T2, wild-type GT1a NS3/4A protease (UniProt P27958, C1185S, species not given).
T2 construct: Ki (nM) GT1a WT NS3/4A Protease
Type of assay: biochemical, Hepatitis C virus. Particulars: read-out: Ki (nM) GT1a WT NS3/4A Protease. As for the experimental part: as §1, §2, §3

Assay [4] has as its target T3, GT3a NS3/4A protease (Hepatitis C virus genotype 3a, UniProt Q81495).
T3 construct: drug-resistant variant D168A, and GT3a NS3/4A protease; made in house; host or cells: Escherichia coli BL21(DE3)
Put plainly: biochemical. The settings on record: for Ki (Fold change) GT3a NS3/4A Protease: Table 3, Ki GT3a relative to GT1a WT. As for the experimental part:
as §1

For assay [5], the system named is wild-type HCV replicon in Huh7 cells. The experiment in a line: Cell-based drug susceptibility (replicon) assay, wild-type. Particulars: Hepatitis C virus, read-out: Replicon EC50 (nM) WT. As for the experimental part:
(§4) Mutations (R155K, A516T, D168A and D168V) were constructed by site-directed mutagenesis using a Con1 (genotype 1b) luciferase reporter replicon containing the H77 (genotype 1a) NS3 sequence.
(§5) Replicon RNA of each protease variant was introduced into Huh7 cells by electroporation. Replication was then assessed in the presence of increasing concentrations of protease inhibitors by measuring luciferase activity (relative light units) 96 h after electroporation.
(§6) Mutations (R155K, D168A and A156T) were constructed by site-directed mutagenesis using a Con1 (genotype 1b) luciferase reporter replicon containing the H77 (genotype 1a) NS3 sequence.^6 Replicon RNA of each protease variant was introduced into Huh7 cells by electroporation. Replication was then assessed in the presence of increasing concentrations of protease inhibitors by measuring luciferase activity (relative light units) 96 h after electroporation.

In assay [6] the test system is HCV replicon A156T variant in Huh7 cells. Put plainly: microbe, parasite or virus in culture. Type of assay: cell-based, Hepatitis C virus. Particulars: for EC50: Hepatitis C virus; for Replicon EC50 (Fold change) A156T: Table 4, relative to WT replicon. As for the experimental part: as §4, §5, §6
(In general: Replicon systems follow genome replication, usually without infectious particles.)

Assay [7] concerns HCV replicon D168A variant in Huh7 cells. Put plainly: microbe, parasite or virus in culture. Particulars: for EC50: Hepatitis C virus; for Replicon EC50 (Fold change) D168A: Table 4, relative to WT replicon. Format: cell-based, Hepatitis C virus. As for the experimental part:
as §4, §5, §6

The test system of assay [8] is HCV replicon R155K variant in Huh7 cells. Put plainly: microbe, parasite or virus in culture. Format: cell-based, Hepatitis C virus. The settings on record: for EC50: Hepatitis C virus; for Replicon EC50 (Fold change) R155K: Table 4, relative to WT replicon. As for the experimental part: as §4, §5, §6
Assay [9] relates to HCV replicon D168V variant in Huh7 cells. Put plainly: microbe, parasite or virus in culture. Type of assay: cell-based, Hepatitis C virus. Particulars: for EC50: Hepatitis C virus; for Replicon EC50 (Fold change) D168V: Table 4, relative to WT replicon. As for the experimental part: as §4
Replicon RNA of each protease variant was introduced into Huh7 cells by electroporation. Replication was then assessed in the presence of increasing concentrations of protease inhibitors by measuring luciferase activity (relative light units) 96 h after electroporation. […]

Setting [10] is: Huh-7, 96 h, Table 2, Huh7 cells, luciferase 96 h.
The mark [11] stands for this setting: Huh-7, 96 h, read-out: Replicon EC50 (nM) A156T, Table 2, Huh7 cells, luciferase 96 h.
The mark [12] stands for this setting: Huh-7, read-out: Replicon EC50 (nM) A156T, Table 4.
The mark [13] stands for this setting: Huh-7, 96 h, read-out: Replicon EC50 (nM) D168A, Table 2, Huh7 cells, luciferase 96 h.
Setting [14] is: Huh-7, read-out: Replicon EC50 (nM) D168A, Table 4.
The mark [15] stands for this setting: Huh-7, 96 h, read-out: Replicon EC50 (nM) R155K, Table 2, Huh7 cells, luciferase 96 h.
Where [16] appears, read: Huh-7, read-out: Replicon EC50 (nM) R155K, Table 4.
Where [17] appears, read: Huh-7, 96 h, read-out: Replicon EC50 (nM) D168V, Table 2, Huh7 cells, luciferase 96 h.
Where [18] appears, read: Huh-7, read-out: Replicon EC50 (nM) D168V, Table 4.

Where two headings read alike, the source gives them in different places.

T3 sequence (Q81495 1033-1214): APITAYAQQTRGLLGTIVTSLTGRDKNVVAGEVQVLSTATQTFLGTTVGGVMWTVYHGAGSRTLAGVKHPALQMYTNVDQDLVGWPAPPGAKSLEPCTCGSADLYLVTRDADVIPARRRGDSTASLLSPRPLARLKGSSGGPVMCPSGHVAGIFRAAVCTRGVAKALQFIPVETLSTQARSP

In the case of `CCc1nc2ccc(OC)cc2nc1O[C@@H]1C[C@H]2C(=O)N[C@]3(C(=O)NS(=O)(=O)C4CC4)C[C@H]3/C=C\CCCCC[C@H](NC(=O)OC3CCCC3)C(=O)N2C1` [Compound 22a, Cyclopentyl ((2R,6S,13aS,14aR,16aS,Z)-14a-((cyclopropylsulfonyl)carbamoyl)-2-((3-ethyl-7-methoxyquinoxalin-2-yl)oxy)-5,16-dioxo-1,2,3,5,6,7,8,9,10,11,13a,14,14a,15,16,16a-hexadecahydrocyclopropa[e]pyrrolo[1,2-a][1,4]diazacyclopentadecin-6-yl)carbamate], the Ki turned out to be 52.3 nM in assay [1] (Table 1); 52.3 ± 3.2 nM in assay [1] (Table 3); 1.24 nM in assay [3] (Table 1); 1.24 nM in assay [3] (Table 3); 211 nM in assay [4]. In addition, the “Ki (Fold change) GT1a D168A NS3/4A Protease” value in [2] is reported as “(42) fold”. For the same compound, the “Ki (Fold change) GT3a NS3/4A Protease” value in assay [4] is “(170) fold”. The EC50 was 0.14 nM in assay [5] (setting [10]); 0.14 nM in assay [5] (Huh-7, Table 4); 11.8 nM in assay [6] (setting [11]); 11.8 nM in assay [6] (setting [12]); 3.6 nM in assay [7] (setting [13]); 3.6 nM in assay [7] (setting [14]). The EC50 in [8] (setting [15]) was 2.08 nM; in [8] (setting [16]), 2.08 nM; in [9] (setting [17]) it was 11.9 nM; in [9] (setting [18]), 11.9 nM. For the same compound, the “Replicon EC50 (Fold change) A156T” value in assay [6] is on record as “(84) fold”. In addition, the “Replicon EC50 (Fold change) D168A” value in assay [7] is listed as “(26) fold”. In assay [8], the “Replicon EC50 (Fold change) R155K” value is on record as “(15) fold”. Besides, the “Replicon EC50 (Fold change) D168V” value in assay [9] is given as “(85) fold”.
For the compound `COc1ccc2nc(C)c(O[C@@H]3C[C@H]4C(=O)N[C@]5(C(=O)NS(=O)(=O)C6CC6)C[C@H]5/C=C\CCCCC[C@H](NC(=O)OC5CCCC5)C(=O)N4C3)nc2c1` [Compound 22b, Cyclopentyl ((2R,6S,13aS,14aR,16aS,Z)-14a-((cyclopropylsulfonyl)carbamoyl)-2-((7-methoxy-3-methylquinoxalin-2-yl)oxy)-5,16-dioxo-1,2,3,5,6,7,8,9,10,11,13a,14,14a,15,16,16a-hexadecahydrocyclopropa[e]pyrrolo[1,2-a][1,4]diazacyclopentadecin-6-yl)carbamate], the Ki in [1] (Table 1) is 31.9 nM; in assay [1] (Table 3) it was 31.9 ± 2.5 nM; in [3] (Table 1), 0.93 nM; in [3] (Table 3), 0.93 nM; in [4], 147 nM. In assay [2], the “Ki (Fold change) GT1a D168A NS3/4A Protease” value is recorded as “(34) fold”. For the same compound, the “Ki (Fold change) GT3a NS3/4A Protease” value in assay [4] is recorded as “(158) fold”. Also, the EC50 was found to be 0.11 nM in assay [5] (setting [10]); 0.11 nM in [5] (Huh-7, Table 4); 2.88 nM in assay [6] (setting [11]); 2.88 nM in [6] (setting [12]); 2.63 nM in assay [7] (setting [13]); 2.63 nM in assay [7] (setting [14]). Further, the EC50 in assay [8] (setting [15]) was determined as 0.89 nM; in [8] (setting [16]) it was 0.89 nM; in assay [9] (setting [17]), 4.32 nM; in [9] (setting [18]), 4.32 nM. The “Replicon EC50 (Fold change) A156T” value in assay [6] is reported as “(26) fold”. Also, the “Replicon EC50 (Fold change) D168A” value in [7] is reported as “(24) fold”. In addition, in [8], the “Replicon EC50 (Fold change) R155K” value is given as “(8) fold”. In addition, the “Replicon EC50 (Fold change) D168V” value in [9] is given as “(39) fold”.
